Results as given in paper PMC9306661 (British Journal of Pharmacology, 2021).

Experiments:
[1] = biological target: T1, Cel-AVR-14B/GLC-2 (Caenorhabditis elegans, UniProt Q17328+Q17369); test: two-electrode voltage clamp, Xenopus oocytes; type: cell-based
T1 sequence (Q17369 22-430): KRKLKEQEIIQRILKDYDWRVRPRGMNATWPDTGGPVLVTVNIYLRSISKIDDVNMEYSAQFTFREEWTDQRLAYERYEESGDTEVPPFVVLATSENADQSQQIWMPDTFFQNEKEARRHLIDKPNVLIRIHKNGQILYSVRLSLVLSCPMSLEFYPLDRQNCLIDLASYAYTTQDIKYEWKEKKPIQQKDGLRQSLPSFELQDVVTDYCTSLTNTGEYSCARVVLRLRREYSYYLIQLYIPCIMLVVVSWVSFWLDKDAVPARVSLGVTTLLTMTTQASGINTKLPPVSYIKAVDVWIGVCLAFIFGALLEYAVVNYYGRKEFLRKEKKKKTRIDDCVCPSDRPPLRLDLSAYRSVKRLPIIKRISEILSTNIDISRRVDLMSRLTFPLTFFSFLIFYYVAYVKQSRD
T1 sequence (Q17328 23-434): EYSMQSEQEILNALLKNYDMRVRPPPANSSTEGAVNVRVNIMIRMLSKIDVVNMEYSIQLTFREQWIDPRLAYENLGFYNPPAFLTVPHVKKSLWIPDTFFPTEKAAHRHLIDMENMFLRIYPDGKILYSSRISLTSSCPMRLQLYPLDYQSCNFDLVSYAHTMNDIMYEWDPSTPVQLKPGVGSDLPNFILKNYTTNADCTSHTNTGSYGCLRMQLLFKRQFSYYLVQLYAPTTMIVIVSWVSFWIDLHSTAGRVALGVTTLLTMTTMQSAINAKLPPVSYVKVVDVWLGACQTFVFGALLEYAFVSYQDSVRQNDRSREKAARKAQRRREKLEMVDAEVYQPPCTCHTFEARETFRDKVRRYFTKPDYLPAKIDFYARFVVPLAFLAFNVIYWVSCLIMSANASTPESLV

[2] = biological target: T2, Pun-AVR-14B/GLC-2 (Parascaris univalens, UniProt A0A894K7G1+A0A894KE58); test: two-electrode voltage clamp, Xenopus oocytes; type: cell-based
T2 sequence (A0A894K7G1 19-428): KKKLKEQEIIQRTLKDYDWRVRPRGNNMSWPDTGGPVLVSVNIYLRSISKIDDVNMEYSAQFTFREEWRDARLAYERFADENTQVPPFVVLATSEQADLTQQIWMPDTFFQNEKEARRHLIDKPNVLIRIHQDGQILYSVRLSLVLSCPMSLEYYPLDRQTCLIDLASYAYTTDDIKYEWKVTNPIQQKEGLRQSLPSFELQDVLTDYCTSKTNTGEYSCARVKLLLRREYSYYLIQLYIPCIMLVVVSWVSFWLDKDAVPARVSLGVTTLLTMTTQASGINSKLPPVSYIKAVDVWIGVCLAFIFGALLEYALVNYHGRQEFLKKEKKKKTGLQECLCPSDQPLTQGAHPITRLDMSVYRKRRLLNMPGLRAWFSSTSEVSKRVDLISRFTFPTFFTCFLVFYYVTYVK
T2 sequence (A0A894KE58 21-448): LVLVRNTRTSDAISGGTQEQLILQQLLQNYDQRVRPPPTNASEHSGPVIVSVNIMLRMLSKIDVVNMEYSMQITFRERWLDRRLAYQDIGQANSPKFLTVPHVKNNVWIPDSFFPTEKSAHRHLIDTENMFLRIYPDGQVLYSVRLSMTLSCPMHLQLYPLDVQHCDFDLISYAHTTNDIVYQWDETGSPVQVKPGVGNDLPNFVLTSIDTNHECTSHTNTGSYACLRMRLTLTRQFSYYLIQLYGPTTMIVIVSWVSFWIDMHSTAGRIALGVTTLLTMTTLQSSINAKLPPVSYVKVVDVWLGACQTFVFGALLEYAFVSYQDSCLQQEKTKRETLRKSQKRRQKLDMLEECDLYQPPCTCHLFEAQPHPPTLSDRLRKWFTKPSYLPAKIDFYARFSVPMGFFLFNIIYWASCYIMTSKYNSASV

EC50 [1]: 19.4 µM
EC50 [2]: 10.9 µM
Compound: N[C@@H](CCC(=O)O)C(=O)O [glutamate]
